Data: patent US12428398B2, “2-(2,4,5-substituted phenylamino) pyrimidine derivative and crystalline form B thereof” (Henan Genuine Biotech Co., Ltd., priority 2019, dated 2025)

What was measured:
[1] = molecular target: wild EGFR (Homo sapiens, UniProt P00533); conditions: J. Med. Chem. 2014; cited from earlier work
[2] = Pharmacokinetics of Dositinib and AZD9291 in rats; conditions: for T1/2: parent drug; for AUC0-last / Cmax: parent drug in plasma; for Cmax: intragastric 12 mg/kg per FIGS. 2-5
From the text: Preparation of Test Solution
2) Preparation of Orally Administered Preparations • a) Weigh an appropriate amount of compound powders into a container; • b) Add an appropriate volume of 0.5% HPMC (hydroxypropyl methylcellulose, 4000 CP) aqueous solution to the container, and continuously stir or whirl until a uniform solution was obtained; • c) Add the remaining volume of 0.5% HPMC (hydroxypropyl methylcellulose, 4000 CP) aqueous solution to the container to a final volume, and continuously stir or whirl until the solution was uniform.
The preparation for intragastric administration was prepared the day before administration and analyzed. When the preparation was not in use, it was stored in a refrigerator at 2° C. to 8° C. and used within 8 days.
Animal: Rats (SD) from Beijing Vital River Laboratory Animal Technology Co., Ltd. 36 rats (18 males and 18 females), 6-10 weeks old, 200-300 g (males); 170-280 g (female). […] The animals in the sixth group were administered with AZD9291 (mesylate) solution by gavage, with a dose volume of 10 mL/kg. The blood samples were taken at the following time points after administration to measure the blood drug concentrations: 0.083, 0.25, 0.5, 1, 2, 4, 6, 8, 12 and 24 hours.
Administration: Whole blood samples were collected through jugular vein puncture (or other appropriate blood collection sites) at the specified time (about 0.15 mL in the fifth group and 0.23 mL in other groups), with wet ice operation throughout the whole process, and the actual blood collection time was recorded in the experimental records. The acceptable error of collection time point was ±1 minute within 1 hour of administration, and ±5% of theoretical time for other time points. The blood samples were immediately transferred to labeled commercial tubes containing K2-EDTA and then centrifuged (3,000 g, 4° C., 15 min) for plasma collection.
Retention time, chromatogram collection and chromatogram integration of compounds and internal standards were processed by Software Analyst (Applied Biosystems), and data statistics were processed by software Watson LIMS (Thermo Fisher Scientific) or Analyst (Applied Biosystems). The unit of the analyte concentration in the sample was nM, three significant figures were reserved, and all values expressed in percentage (such as % deviation and % coefficient of variation, etc.) were reserved to one decimal place.
Data analysis and reporting: WinNonlin™ Version 6.3 (Pharsight, Mountain View, CA) or above pharmacokinetic software for non-atrioventricular models was used to process the blood drug concentration, and the linear logarithm trapezoid method was used to calculate the pharmacokinetic parameters.

[3] = tested on: Human non-small cell lung cancer HCC827 cell subcutaneous xenograft; conditions: HCC-827 nude mouse model, PO QD
Method: Example 5 In Vivo Pharmacodynamics of Crystalline Form B of Dositinib and AZD9291 on Human Non-Small Cell Lung Cancer HCC827 Cell Subcutaneous Xenograft BALB/C Nude Mouse Model
Human non-small cell lung cancer HCC827 (ATCC-CRL-2868) was monolayer cultured in vitro. The culture conditions were: RPMI-1640 medium with 10% fetal bovine serum, 100 U/mL penicillin and 100 g/mL streptomycin, in a 5% CO2 incubator at 37° C. Trypsin EDTA was used for routine digestion twice a week. When the cell saturation was 80%-90% and the number reached the requirements, the cells were collected, counted and transplanted.
Animals: BALB/c nude mouse, female, 6-8 weeks old, weight 18-22 g. […]
Experimental index: to investigate whether the tumor growth is inhibited, delayed or cured. The tumor diameter was measured with a vernier caliper twice a week. […]
The antitumor effect of the compound was evaluated by tumor growth inhibition value (TGI) (%) or relative tumor proliferation rate T/C (%). […]
Relative tumor proliferation rate T/C (%): the calculation is as follows: T/C %=TRTV/CRTV×100% (TRTV: treatment group RTV; CRTV: negative control group RTV). The relative tumor volume (RTV) is calculated according to the results of tumor measurement. […]
At the end of the experiment, the tumor weight is measured and the percentage of Tweight/Cweight is calculated. […]

Chain of wild EGFR (P00533 25-1210): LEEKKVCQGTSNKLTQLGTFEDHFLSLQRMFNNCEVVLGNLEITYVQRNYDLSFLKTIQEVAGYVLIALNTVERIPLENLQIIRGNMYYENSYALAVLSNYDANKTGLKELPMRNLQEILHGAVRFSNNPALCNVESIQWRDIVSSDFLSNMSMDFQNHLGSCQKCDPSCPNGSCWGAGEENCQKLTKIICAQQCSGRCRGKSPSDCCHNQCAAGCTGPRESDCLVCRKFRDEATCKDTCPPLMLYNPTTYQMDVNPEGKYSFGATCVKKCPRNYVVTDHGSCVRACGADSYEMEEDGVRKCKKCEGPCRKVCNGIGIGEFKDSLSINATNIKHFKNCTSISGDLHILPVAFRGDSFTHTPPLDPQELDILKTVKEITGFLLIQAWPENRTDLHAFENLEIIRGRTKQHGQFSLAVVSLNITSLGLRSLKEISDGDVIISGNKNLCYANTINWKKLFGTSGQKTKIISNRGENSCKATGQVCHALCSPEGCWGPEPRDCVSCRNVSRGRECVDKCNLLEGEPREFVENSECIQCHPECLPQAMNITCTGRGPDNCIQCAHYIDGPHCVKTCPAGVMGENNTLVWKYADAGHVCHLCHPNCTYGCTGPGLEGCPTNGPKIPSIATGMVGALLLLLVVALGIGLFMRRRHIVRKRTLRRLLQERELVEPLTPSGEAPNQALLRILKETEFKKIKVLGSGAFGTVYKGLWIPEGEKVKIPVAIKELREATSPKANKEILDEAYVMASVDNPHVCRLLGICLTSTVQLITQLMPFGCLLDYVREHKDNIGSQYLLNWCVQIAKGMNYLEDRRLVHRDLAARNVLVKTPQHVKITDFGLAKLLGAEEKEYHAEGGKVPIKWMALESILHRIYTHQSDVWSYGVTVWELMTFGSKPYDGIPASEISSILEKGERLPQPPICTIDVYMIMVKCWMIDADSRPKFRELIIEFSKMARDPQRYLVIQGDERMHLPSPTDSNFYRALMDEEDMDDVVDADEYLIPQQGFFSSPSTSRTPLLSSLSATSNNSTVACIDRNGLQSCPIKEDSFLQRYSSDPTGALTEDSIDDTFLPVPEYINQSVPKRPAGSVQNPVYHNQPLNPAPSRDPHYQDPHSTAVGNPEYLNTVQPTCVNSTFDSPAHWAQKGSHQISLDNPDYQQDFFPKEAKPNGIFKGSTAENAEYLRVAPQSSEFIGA

SMILES | inhibitory activity on wild EGFR, times stronger than that of Osimertinib [1] | T1/2 ([2]; female rats) | AUC0-last ([2]; female rats) | Cmax ([2]; female rats) | T1/2 ([2]; male rats) | AUC0-last ([2]; male rats) | Cmax ([2]; male rats) | anticancer activity relative to AZD9291 (Osimertinib, mixture of crystalline forms A and B) [3] | anticancer activity of 0.5 mg/kg compared with 1 mg/kg of AZD9291 ([3]; 0.5 mg/kg)
C=CC(=O)Nc1cc(Nc2nccc(-c3c[nH]c4ccccc34)n2)c(OC)cc1N(C)CCN(C)C [AZ5104] | 14.5 times |  |  |  |  |  |  |  | 
C=CC(=O)Nc1cc(Nc2nccc(-c3cn(C)c4ccccc34)n2)c(OC)cc1N(C)CCN(C)C [AZD9291 (crystalline form A + B), Osimertinib, reference compound] |  | 5.59 h | 2592 ng·h/mL | 207 ng/mL | 3.40 h | 907 ng·h/mL | 106 ng/mL |  | 
CS(=O)(=O)O.[2H]C([2H])=CC(=O)Nc1cc(Nc2nccc(-c3cn(C([2H])([2H])[2H])c4ccccc34)n2)c(OC)cc1N(C)CCN(C)C [Dositinib (crystalline form A + B), N-(2-(((2-(Dimethylamino)ethyl)) (methyl)amino)-4-methoxy-5-((4-(d3-1-methyl-1H-indol-3-yl)pyrimidin-2-yl)amino)phenyl) d2-acrylamide-mesylate] |  | 6.77 h | 2650 ng·h/mL | 205 ng/mL | 3.70 h | 915 ng·h/mL | 110 ng/mL |  | 
CS(=O)(=O)O.[2H]C([2H])=CC(=O)Nc1cc(Nc2nccc(-c3cn(C([2H])([2H])[2H])c4ccccc34)n2)c(OC)cc1N(C)CCN(C)C [Dositinib (crystalline form B), N-(2-(((2-(Dimethylamino)ethyl)) (methyl)amino)-4-methoxy-5-((4-(d3-1-methyl-1H-indol-3-yl)pyrimidin-2-yl)amino)phenyl) d2-acrylamide-mesylate] |  | 6.85 h | 3105 ng·h/mL | 208 ng/mL | 3.87 h | 1100 ng·h/mL | 115 ng/mL | twice | equivalent
